Results on three molecules are retold here after US6683089B2, “N-allyoxyethyl-1,2,3,4,5,6-hexahydro-2,6-methano-3-benzazocine-10-ols” (Boehringer Ingelheim Pharma GmbH & Co. KG, priority 2002, dated 2004).

Where a name gives a salt, the structure may show the parent alone.

For `C=CCO[C@@H](C)CN1CC[C@@]2(C)c3cccc(O)c3C[C@@H]1C2(C)C` (as salt: hydrochloride), the melting point amounted to 239 °C.
Next, `C=C(C)CO[C@@H](C)CN1CC[C@@]2(C)c3cccc(O)c3C[C@@H]1C2(C)C` (as salt: hydrochloride): 240 °C; `C/C=C/CO[C@@H](C)CN1CC[C@@]2(C)c3cccc(O)c3C[C@@H]1C2(C)C` (as salt: hydrochloride): 205 °C.
